These are literature values, as cited in US7879804B2, “Blood pressure lowering peptides in a single enzymatic step” (DSM IP Assets B.V., priority 2004, dated 2011).

For data set [1], the system named is spontaneously hypertensive rats. To be noted: Nakamura et al. 1995.
Data set [2] addresses ACE (Homo sapiens, UniProt P12821). The settings on record: for ACE inhibiting activities: in vitro, as reported in the literature.

Sequence of ACE (P12821 30-1306, species assumed): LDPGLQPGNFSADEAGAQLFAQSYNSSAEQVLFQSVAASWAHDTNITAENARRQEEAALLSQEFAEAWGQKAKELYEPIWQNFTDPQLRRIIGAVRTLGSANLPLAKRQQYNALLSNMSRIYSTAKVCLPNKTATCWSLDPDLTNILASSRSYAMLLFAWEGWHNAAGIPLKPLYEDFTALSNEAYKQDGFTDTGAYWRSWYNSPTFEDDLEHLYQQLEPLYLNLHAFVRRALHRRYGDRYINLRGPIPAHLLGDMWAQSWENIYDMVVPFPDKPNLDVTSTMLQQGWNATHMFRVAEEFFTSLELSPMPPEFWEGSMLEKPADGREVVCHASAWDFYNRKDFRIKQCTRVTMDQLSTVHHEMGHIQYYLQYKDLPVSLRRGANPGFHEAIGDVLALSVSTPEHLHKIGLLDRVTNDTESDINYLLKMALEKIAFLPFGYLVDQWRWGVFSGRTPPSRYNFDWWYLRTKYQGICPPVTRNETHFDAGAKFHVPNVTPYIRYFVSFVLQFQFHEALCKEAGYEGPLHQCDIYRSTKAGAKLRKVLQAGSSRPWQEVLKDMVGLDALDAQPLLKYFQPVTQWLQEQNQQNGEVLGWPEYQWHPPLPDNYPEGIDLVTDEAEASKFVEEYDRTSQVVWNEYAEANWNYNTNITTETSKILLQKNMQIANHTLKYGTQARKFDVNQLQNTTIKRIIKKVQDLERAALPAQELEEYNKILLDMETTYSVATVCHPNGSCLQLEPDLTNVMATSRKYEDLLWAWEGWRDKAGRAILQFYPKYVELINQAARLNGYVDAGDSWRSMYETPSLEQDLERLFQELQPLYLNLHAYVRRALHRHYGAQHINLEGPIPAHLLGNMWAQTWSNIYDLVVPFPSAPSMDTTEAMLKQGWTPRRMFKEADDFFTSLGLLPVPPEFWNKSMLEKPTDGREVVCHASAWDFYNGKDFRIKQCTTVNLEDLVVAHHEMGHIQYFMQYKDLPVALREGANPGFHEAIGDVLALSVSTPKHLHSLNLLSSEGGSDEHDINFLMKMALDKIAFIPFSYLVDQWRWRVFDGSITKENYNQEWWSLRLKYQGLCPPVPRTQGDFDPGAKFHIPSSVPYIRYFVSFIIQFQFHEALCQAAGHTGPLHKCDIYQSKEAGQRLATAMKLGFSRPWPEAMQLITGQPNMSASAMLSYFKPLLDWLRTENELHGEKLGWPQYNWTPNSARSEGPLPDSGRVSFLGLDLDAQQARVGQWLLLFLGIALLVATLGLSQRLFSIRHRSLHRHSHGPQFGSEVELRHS

Regarding Ile-Pro-Pro [IPP], the antihypertensive effects entry in data set [1] is listed as “confirmed”. Also, the ACE inhibiting activities result in data set [2] was “Strong”.
Leu-Pro-Pro [LPP]: the ACE inhibiting activities entry in data set [2] is listed as “Strong”.
The IC50 is the concentration needed to halve the response being measured. As for Val-Pro-Pro [VPP], in data set [1], the antihypertensive effects result was “confirmed”. In addition, in data set [2] (ACE inhibition, reported by EP 0 583 074), the IC50 was 9 µM. Moreover, the ACE inhibiting activities result in data set [2] is reported as “Strong”.
